Data: patent publication US20180235917A1, “COMPOSITIONS, METHODS AND KITS FOR TREATMENT OF DIABETES AND/OR […]” (NuSirt Sciences, Inc., priority 2014, published 2018)
Marks after values point to notes of the source that are not given here.

Tests used:
diet-induced obese mice = experiment: Diet-induced obese mice fed resveratrol, HMB, leucine: weight, adiposity, fat oxidation, insulin sensitivity (Example 1); assay type: in vivo, c57/BL6 mice; settings: for Weight: 6 weeks on high-fat diet; for Glucose / Insulin: plasma
Method: Six week old male c57/BL6 mice were fed a high-fat diet with fat increased to 45% of energy (Research Diets D12451) for 6 weeks to induce obesity.
The animals were housed in polypropylene cages at a room temperature of 22±2° C. and regime of 12 h light/dark cycle. The animals had free access to water and their experimental food throughout the experiment. At the of the treatment period (6 weeks) all animals were humanely euthanized, and blood and tissues collected for further experiments.
at the end of the obesity induction period (day 0 of treatment group) and at 2 weeks and 6 weeks of treatment, oxygen consumption and substrate utilization was measured via metabolic chambers using the Comprehensive Lab Animal Monitoring Systems (CLAMS, Columbus Instruments, Columbus, Ohio) in subgroups of each treatment group. Each animal was placed in individual cages without bedding that allow automated, non-invasive data collection. Each cage is an indirect open circuit calorimeter that provides measurement of oxygen consumption, carbon dioxide production, and concurrent measurement of food intake. All mice were acclimatized to the chambers for 24 hours prior to the experiment and maintained under the regular 12:12 light:dark cycle with free access to water and food. All experiments were started in the morning and data were collected for 24 hours. Each chamber was passed with 0.61 of air/min and was sampled for 2 min at 32-minute intervals. Exhaust O2 and CO2 content from each chamber was compared with ambient O2 and CO2 content. Food consumption was measured by electronic scales.
at the end of the treatment period (6 weeks of treatment) subgroups of each treatment diet group (5 animals/group, 35 animals total) were used to measure whole body glucose and palmitate uptake via PET/CT Imaging. To visualize these compounds using microPET imaging, the glucose or palmitate was labeled with fluorine-18 (108 mins half-life) or carbon-11 (20 mins half-life), respectively. Each mouse was fasted for 4 hours, then anesthetized using 1-3% isoflurane delivered by nose cone or in a mouse-sized induction chamber purpose-built for small animal imaging protocols. While under anesthesia the mice were injected iv with <2 mCi of each tracer, then be left for a period of time (minutes to up ˜1 hour) to allow the uptake of the tracer. During the scan, mice were kept warm using a thermostatically controlled heated bed and were treated with ophthalmic ointment prior to scanning Following the live scan the mice were returned to their cage and revived. Mice were monitored constantly during this time. Following live data acquisition the mice were sacrificed by isoflurane overdose and organs harvested for further experiments.

[1] = system: adipocytes (3T3-L1) and myotubes (C2C12); experiment: Fatty acid oxidation and dose-response screening, cell type not stated; assay type: cell-based, mouse; settings: leucine 0.5 mM, HMB 5 μM, resveratrol 200 nM, myo-inositol 100 nM; cell type not stated
Sirt1 = biological target: T1, Sirt1 (Mus musculus, UniProt Q923E4); experiment: Sirt1 activity (SIRT1 Fluorimetric Drug Discovery Kit) in treated cells; assay type: cell-based; settings: leucine 0.5 mM, HMB 5 μM, resveratrol 200 nM, alone or combined; cell type not stated
T1 construct: endogenous in cells; host or cells: differentiated 3T3-L1 adipocytes and C2C12 myotubes (lysates)
T1 sequence (Q923E4 1-737): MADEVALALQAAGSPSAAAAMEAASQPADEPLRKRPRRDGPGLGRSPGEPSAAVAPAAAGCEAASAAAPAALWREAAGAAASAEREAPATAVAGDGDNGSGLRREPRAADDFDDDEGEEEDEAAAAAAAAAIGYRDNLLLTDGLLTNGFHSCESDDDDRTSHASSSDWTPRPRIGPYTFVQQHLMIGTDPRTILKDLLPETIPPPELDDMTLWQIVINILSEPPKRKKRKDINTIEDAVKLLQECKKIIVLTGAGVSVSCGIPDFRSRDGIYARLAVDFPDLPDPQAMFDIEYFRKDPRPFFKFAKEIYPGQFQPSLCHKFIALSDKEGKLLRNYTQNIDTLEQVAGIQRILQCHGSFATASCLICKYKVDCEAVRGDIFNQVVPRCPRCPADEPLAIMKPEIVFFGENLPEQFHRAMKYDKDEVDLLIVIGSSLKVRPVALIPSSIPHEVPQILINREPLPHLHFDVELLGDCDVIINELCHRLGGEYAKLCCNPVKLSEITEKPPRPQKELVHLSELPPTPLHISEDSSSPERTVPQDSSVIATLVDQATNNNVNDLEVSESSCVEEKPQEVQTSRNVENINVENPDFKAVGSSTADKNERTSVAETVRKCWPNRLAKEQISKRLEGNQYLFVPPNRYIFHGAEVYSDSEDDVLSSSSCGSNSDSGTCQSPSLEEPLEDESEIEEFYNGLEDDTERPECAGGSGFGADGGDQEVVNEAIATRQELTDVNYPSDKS
Method: SIRT1 activity was measured by using the SIRT1 Fluorimetric Drug Discovery Kit (BML-AK555, ENZO Life Sciences International, Inc. PA, USA). The assay measures SIRT1 activity by the degree of deacetylation of a standardized substrate containing an acetylated lysine side chain. The substrate utilized is a peptide containing amino acids 379-382 of human p53 (Arg-His-Lys-Lys[Ac]), an established target of SIRT1 activity; SIRT1 activity is directly proportional to the degree of deacetylation of Lys-382. Samples were incubated with peptide substrate (25 μM), and NAD^+ (500 μM) in a phosphate-buffered saline solution at 37° C. on a horizontal shaker for 45 minutes. […] Following 10 minutes incubation at 37° C., fluorescence was read in a plate-reading fluorometer (Synergy HT, BioTek Instruments, Winooski, Vt.) at an excitation wavelength of 360 nm and an emission wavelength of 450 nm. […]
Sirt1 activity was measured by using the Sirt1 Fluorimetric Drug Discovery Kit (BML-AK555, ENZO Life Sciences Inc., Farmingdale, N.Y., USA). […] Sirt1 activity was assessed by the degree of deacetylation of a standardized substrate containing an acetylated lysine side chain. […] Following 10 minutes incubation at 37° C., fluorescence was read in a plate-reading fluorimeter with excitation and emission wavelengths of 360 nm and 450 nm, respectively. […] Sirt1 activity was measured in a modified assay using 5 μl of cell lysate. […]

Oc1ccc(/C=C/c2cc(O)cc(O)c2)cc1 [Resveratrol, 3,5,4′-Trihydroxy-trans-stilbene]
Weight (diet-induced obese mice; High Resveratrol 225 mg/kg diet, or Low Resv 12.5 mg/kg + High HMB 10 g CaHMB/kg diet): 38.7 ± 1.2^a g | Weight (diet-induced obese mice; low doses: resveratrol 12.5 mg/kg diet, CaHMB 2 g/kg diet, leucine 2.42% of diet): 40.8 ± 2.5^a g | Fat oxidation (PET palmitate uptake; Muscle SUV) (diet-induced obese mice; high doses as E2): 2.29 ± 0.11^b SUV | HOMAIR (diet-induced obese mice; high doses as E2): 0.59 ± 0.26^b | Heat Production (diet-induced obese mice; high doses as E2): 0.552 ± 0.015^b | Muscle Glucose Uptake (^18F-deoxyglucose SUV) (diet-induced obese mice; high doses as E2): 3.87 ± 0.32^a SUV | Visceral Adipose Volume (diet-induced obese mice; high doses as E2): 6031 ± 323^a mm^3 | Weight gain (diet-induced obese mice; high doses as E2): 22.3 ± 2.4^a g | Fat oxidation (PET palmitate uptake; Muscle SUV) (diet-induced obese mice; low doses as E1): 1.51 ± 0.44^a SUV | HOMAIR (diet-induced obese mice; low doses as E1): 2.41 ± 0.66^a | Heat Production (diet-induced obese mice; low doses as E1): 0.517 ± 0.014^a | Muscle Glucose Uptake (^18F-deoxyglucose SUV) (diet-induced obese mice; low doses as E1): 3.63 ± 1.29^a SUV | Visceral Adipose Volume (diet-induced obese mice; low doses as E1): 6551 ± 575^a mm^3 | Weight gain (diet-induced obese mice; low doses as E1): 20.9 ± 1.5^a g | Glucose (diet-induced obese mice; high doses as E2): 5.14 ± 0.75^a mM | Insulin (diet-induced obese mice; high doses as E2): 10.1 ± 2.7^a μU/mL | Glucose (diet-induced obese mice; low doses as E1): 5.14 ± 0.85^a mM | Insulin (diet-induced obese mice; low doses as E1): 10.4 ± 1.6^a μU/mL | increase in fatty acid oxidation [1]: no effect | stimulation of Sirt1 activity (Sirt1): no effect
